Laboratory results reported in patent publication US12679836B2, “4H-pyrrolo[3,2-c]pyridin-4-one compounds” (Bayer Aktiengesellschaft, priority 2019, dated 2026).

Tests used:
Ba/F3-EGFR-insSVD cells = Ba/F3-EGFR-insSVD cells (Homo sapiens, UniProt P00533, DUP768-770, cells depend on it); assay: Ba/F3 cell survival assay (Cell Titer-Glo), EGFR-insSVD; type: cell-based; details: without IL-3, with 10 ng/mL EGF, 48 h; read-out: BA/F3 (insSVD) IC50
Outline: (§1)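 Ba/F3 cells stably expressing WT EGFR or EGFR-insSVD from retroviral transduction were grown without IL-3 on 10 ng/mL EGF. Cells were plated at 4000 cells/well, treated with compound for 48 h at 37° C, and viability was read by CellTiter-Glo luminescence.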

[1] = target: T1, EGFR with insertion of SVD between D770 and N771 (EGFR ins SVD) (Homo sapiens, UniProt P00533, DUP768-770); assay: Exon20-Mutant-EGFR(D770_N771insSVD) kinase assay (TR-FRET); type: biochemical; details: 2 mM ATP, several values per example where printed
T1 construct: made in house; host or cells: Sf9 insect cells (baculovirus)
T1 sequence (P00533 with tags, fused parts or gaps DUP768-770): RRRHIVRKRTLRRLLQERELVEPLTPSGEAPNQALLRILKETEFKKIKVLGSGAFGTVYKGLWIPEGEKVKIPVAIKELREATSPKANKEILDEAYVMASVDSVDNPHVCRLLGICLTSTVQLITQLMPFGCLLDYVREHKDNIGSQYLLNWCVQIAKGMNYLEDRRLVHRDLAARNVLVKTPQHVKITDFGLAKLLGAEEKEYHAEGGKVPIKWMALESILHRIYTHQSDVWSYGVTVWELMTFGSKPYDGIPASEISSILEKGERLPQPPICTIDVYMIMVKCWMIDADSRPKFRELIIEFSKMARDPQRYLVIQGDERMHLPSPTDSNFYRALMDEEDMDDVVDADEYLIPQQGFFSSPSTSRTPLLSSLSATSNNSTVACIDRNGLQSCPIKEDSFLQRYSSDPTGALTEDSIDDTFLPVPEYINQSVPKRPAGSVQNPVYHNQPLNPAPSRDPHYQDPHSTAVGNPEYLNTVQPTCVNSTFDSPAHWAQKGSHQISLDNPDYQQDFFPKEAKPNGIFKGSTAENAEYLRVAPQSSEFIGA

Ba/F3-EGFR-WT cells = Ba/F3-EGFR-WT cells (Homo sapiens, UniProt P00533); assay: Ba/F3 cell survival assay (Cell Titer-Glo), WT EGFR; type: cell-based; details: without IL-3, with 10 ng/mL EGF, 48 h; read-out: BA/F3 (wild type) IC50
Chain of Ba/F3-EGFR-WT cells (P00533 whole entry, change not shown): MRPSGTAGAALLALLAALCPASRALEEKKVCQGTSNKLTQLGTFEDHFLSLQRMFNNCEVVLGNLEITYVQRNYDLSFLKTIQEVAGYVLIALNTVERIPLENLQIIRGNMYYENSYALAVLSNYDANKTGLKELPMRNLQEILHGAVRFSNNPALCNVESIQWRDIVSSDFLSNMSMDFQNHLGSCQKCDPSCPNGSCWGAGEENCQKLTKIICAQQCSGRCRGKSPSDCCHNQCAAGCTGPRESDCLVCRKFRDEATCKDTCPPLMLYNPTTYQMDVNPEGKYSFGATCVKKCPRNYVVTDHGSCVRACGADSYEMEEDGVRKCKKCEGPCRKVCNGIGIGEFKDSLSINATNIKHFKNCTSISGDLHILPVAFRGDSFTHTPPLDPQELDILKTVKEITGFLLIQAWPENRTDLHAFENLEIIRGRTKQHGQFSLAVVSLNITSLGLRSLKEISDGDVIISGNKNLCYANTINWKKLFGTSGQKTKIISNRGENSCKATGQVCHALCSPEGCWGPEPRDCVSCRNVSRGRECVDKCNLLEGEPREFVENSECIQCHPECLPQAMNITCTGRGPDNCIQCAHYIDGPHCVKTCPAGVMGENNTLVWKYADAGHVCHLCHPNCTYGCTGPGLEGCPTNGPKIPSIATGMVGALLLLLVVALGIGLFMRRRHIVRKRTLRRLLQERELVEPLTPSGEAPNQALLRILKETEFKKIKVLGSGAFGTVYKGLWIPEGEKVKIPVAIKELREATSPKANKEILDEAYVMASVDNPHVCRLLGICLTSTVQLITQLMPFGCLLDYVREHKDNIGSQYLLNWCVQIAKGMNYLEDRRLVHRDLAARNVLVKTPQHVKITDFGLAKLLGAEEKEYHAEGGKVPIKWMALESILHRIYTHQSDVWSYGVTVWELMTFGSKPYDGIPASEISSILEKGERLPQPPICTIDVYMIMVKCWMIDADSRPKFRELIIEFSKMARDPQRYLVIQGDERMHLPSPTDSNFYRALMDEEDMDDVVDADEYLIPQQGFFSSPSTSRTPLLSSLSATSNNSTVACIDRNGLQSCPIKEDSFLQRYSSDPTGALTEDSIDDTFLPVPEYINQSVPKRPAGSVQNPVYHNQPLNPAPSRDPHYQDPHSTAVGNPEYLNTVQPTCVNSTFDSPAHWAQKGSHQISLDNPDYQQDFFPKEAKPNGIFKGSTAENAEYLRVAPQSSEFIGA
Outline: as §1

Bub1 = target: T2, Bub1 (Homo sapiens, UniProt O43683); assay: Bub1 TR-FRET high ATP kinase assay; type: biochemical; details: Bub1 high ATP (2 mM) IC50 [mol/l], 2 mM ATP
T2 construct: catalytic domain of human Bub1 (amino acids 704-1085); His6 (N); made in house; host or cells: Hi5 insect cells
T2 sequence (O43683 704-1085): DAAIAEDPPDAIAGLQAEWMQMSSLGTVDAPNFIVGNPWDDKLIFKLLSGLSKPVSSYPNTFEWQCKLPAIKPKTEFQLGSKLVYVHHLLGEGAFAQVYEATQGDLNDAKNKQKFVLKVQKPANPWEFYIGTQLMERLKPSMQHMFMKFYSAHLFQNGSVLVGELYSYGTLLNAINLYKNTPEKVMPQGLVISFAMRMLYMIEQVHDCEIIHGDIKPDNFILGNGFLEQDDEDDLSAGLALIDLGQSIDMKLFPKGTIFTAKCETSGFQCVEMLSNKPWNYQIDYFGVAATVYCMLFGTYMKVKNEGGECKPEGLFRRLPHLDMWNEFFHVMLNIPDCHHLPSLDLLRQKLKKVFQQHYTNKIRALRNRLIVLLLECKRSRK
Outline: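 Recombinant His6-tagged human Bub1 catalytic domain (aa 704-1085), from Hi5 insect cells, phosphorylating a biotinylated peptide substrate at high ATP concentration. TR-FRET read-out.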

[2] = target: Ba/F3-EGFR-E746_A750del cells (Homo sapiens, UniProt P00533, DEL746-750, cells depend on it); assay: Ba/F3 cell survival assay, EGFR E746_A750del; type: cell-based; details: without IL-3, without EGF, 48 h; read-out: BA/F3 (EGFR E746_A750del) IC50
Experimental: (§2) 293T cells from ATCC were transfected with pBABEpuro expression constructs for mutant EGFR (V769_D770insASV, D770_N771insNPG, N771_P772insH, H773_V774insNPH, E746_A750del, L858R, D770_N771insSVD C797S, E746_A750del C797S, L858R C797S, L861Q) or mutant ERBB2 (A775_G776insYVMA) and pCL-Eco packaging vector using Fugene-6 transfection reagent from Promega. Plates were incubated at 37° C. for 48 h. Retrovirus was harvested by filtering the media supernatant through a 0.45 μm filter.
(§3) Ba/F3 cells purchased from DSMZ were grown in RPMI+10% FBS+10 ng/mL IL-3 and infected with filtered retroviral supernatant at a 1:2 dilution. Polybrene was added to a concentration of 8 μg/mL, plates were spun for 90 min, and incubated overnight at 37° C. 2 μg/mL puromycin was added to the infected cells 24 h after infection and cells were continually grown in the presence of puromycin and 10 ng/mL IL-3. Following stably expressing Ba/F3 cell lines were generated: Ba/F3-EGFR-V769_D770insASV, Ba/F3-EGFR-D770_N771insNPG, Ba/F3-EGFR-N771_P772insH, Ba/F3-EGFR-H773_V774insNPH, Ba/F3-EGFR-E746_A750del, Ba/F3-EGFR-L858R, Ba/F3-EGFR-D770_N771 insSVD C797S, Ba/F3-EGFR-E746_A750del C797S, Ba/F3-EGFR-L858R C797S, Ba/F3-EGFR L861Q and Ba/F3-ERBB2-A775_G776insYVMA (Ba/F3-vector-control).
(§4) For cell survival assays, Ba/F3 cells were grown to a density of 1-2 million cells per mL, spun down and resuspended in media without IL-3, and replated at a concentration 200,000-500,000 cells per mL. The cells ectopically expressing WT EGFR plated with 10 ng/mL Millipore Culture grade EGF and Ba/F3 cells containing mutant EGFR or Mutant ERBB2 were cultivated without EGF. The cells ectopically expressing pBABEpuro empty vector were plated with 10 ng/mL IL-3.
(§5) 2 days later, cells were plated in 50 μL in a 384 well plate at a concentration of 4000 cells per well for cells assayed in the absence of IL-3 and 2000 cells per well for cells assayed in the presence of IL-3. 100 nL of compound was added to each well using a 100 nL pin head, and plates were incubated at 37° C. for 48 h.
(§6) Cell viability was measured by adding 20 μL of Cell Titer-Glo Luminescent Cell Viability Reagent diluted 1:3 in PBS. Plates were sealed with Perkin Elmer Top-Seal, inverted several times to mix, and immediately centrifuged at 1000 rpm for 2 min. Plates were incubated in low light conditions for 8-10 min and luminescence was measured.

Ba/F3-EGFR-L858R cells = Ba/F3-EGFR-L858R cells (Homo sapiens, UniProt P00533, L858R, cells depend on it); assay: Ba/F3 cell survival assay, EGFR L858R; type: cell-based; details: without IL-3, without EGF, 48 h; read-out: BA/F3 (EGFR L858R) IC50
Experimental: as §2, §3, §4, §5, §6

Ba/F3-EGFR L861Q cells = Ba/F3-EGFR L861Q cells (Homo sapiens, UniProt P00533, L861Q, cells depend on it); assay: Ba/F3 cell survival assay, EGFR L861Q; type: cell-based; details: without IL-3, without EGF, 48 h; read-out: BA/F3 (EGFR L861Q) IC50
Chain of Ba/F3-EGFR L861Q cells (P00533 whole entry L861Q): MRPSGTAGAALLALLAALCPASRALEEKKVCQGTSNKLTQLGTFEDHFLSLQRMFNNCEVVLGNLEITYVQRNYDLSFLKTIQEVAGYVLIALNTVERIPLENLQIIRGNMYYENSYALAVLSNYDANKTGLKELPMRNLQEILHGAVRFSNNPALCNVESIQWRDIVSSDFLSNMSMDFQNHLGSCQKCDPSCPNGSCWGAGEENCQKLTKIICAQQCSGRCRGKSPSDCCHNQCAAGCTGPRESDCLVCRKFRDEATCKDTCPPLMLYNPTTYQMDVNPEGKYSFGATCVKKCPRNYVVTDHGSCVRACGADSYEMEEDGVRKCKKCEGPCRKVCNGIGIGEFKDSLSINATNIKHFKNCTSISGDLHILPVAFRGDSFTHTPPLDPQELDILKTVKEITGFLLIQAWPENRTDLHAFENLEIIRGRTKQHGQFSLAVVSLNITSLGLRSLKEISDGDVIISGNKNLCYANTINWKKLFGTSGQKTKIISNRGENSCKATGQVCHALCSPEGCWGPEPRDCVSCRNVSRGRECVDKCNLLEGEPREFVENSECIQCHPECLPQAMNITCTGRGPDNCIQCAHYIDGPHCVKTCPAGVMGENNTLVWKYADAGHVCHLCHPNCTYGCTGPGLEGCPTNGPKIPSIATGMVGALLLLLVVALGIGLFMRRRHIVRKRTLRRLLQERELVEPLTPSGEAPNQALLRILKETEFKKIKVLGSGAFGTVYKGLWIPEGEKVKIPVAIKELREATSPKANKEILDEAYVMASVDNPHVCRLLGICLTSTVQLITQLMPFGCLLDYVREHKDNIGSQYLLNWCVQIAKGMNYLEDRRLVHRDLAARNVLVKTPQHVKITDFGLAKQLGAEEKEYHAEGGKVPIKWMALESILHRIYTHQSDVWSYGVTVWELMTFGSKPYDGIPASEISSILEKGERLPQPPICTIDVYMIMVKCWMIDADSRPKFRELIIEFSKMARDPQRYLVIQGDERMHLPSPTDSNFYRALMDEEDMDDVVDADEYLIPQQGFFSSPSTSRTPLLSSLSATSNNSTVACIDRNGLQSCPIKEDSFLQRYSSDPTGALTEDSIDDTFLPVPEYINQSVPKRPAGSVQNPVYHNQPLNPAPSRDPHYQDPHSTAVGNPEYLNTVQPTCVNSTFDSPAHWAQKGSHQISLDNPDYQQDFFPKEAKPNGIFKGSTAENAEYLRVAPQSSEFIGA
Experimental: as §2, §3, §4, §5, §6

PC9 cells (EGFRex19del) = assay: PC9 proliferation assay (Cell Titer Glo); type: cell-based; details: Homo sapiens, PC-9, 72 h
Experimental: Cellular Data Description (PC9 Cells, EGFRex19del)
(§7) PC9 cells were purchased from ATCC. 400 PC9 cells per well were seeded in growth medium (DMEM, 10% FCS) in a 384-well plate (CORNING #3571). Seed reference plate for time zero determination on the same day. All plates were incubated overnight at 37° C. After 24 hours, test compound were added in 7-step dilution using HP Compound printer and incubated at 37° C. for 72 h. After 3 days, 30 μL/well CTG solution (Promega Cell Titer Glo solution; catalog # G755B and G756B) were added to each well, incubated for 30 minutes and the plate were read on PheraStar. Proliferation is calculated after subtracting time zero luminescence values from day 4 values and comparing to untreated wells. The IC50 values were determined using the four parameter fit.

[3] = system: HCC-827 cells (EGFRex19del); assay: HCC-827 proliferation assay (Cell Titer Glo); type: cell-based; details: Homo sapiens, HCC827, 72 h
Experimental: Cellular Data Description (HCC-827 Cells, EGFRex19del)
as §7, with “HCC-827 cells” for “PC9 cells”, “[…]” for “400 PC9”, “medium (RPM11640,” for “medium (DMEM,”, “wells.” for “wells. The IC50 values were determined using the four parameter fit.”
The IC50 values were determined using the four parameter fit.

[4] = target: Ba/F3-ERBB2-A775_G776insYVMA cells (Homo sapiens, UniProt P04626, DUP772-775, cells depend on it); assay: Ba/F3 cell survival assay, ERBB2 A775_G776insYVMA; type: cell-based; details: without IL-3, without EGF, 48 h; read-out: BA/F3 (ERBB2 A775_G776 insYVMA) IC50
Experimental: as §2, §3, §4, §5, §6

Chain of Ba/F3-EGFR-insSVD cells (P00533 with tags, fused parts or gaps DUP768-770): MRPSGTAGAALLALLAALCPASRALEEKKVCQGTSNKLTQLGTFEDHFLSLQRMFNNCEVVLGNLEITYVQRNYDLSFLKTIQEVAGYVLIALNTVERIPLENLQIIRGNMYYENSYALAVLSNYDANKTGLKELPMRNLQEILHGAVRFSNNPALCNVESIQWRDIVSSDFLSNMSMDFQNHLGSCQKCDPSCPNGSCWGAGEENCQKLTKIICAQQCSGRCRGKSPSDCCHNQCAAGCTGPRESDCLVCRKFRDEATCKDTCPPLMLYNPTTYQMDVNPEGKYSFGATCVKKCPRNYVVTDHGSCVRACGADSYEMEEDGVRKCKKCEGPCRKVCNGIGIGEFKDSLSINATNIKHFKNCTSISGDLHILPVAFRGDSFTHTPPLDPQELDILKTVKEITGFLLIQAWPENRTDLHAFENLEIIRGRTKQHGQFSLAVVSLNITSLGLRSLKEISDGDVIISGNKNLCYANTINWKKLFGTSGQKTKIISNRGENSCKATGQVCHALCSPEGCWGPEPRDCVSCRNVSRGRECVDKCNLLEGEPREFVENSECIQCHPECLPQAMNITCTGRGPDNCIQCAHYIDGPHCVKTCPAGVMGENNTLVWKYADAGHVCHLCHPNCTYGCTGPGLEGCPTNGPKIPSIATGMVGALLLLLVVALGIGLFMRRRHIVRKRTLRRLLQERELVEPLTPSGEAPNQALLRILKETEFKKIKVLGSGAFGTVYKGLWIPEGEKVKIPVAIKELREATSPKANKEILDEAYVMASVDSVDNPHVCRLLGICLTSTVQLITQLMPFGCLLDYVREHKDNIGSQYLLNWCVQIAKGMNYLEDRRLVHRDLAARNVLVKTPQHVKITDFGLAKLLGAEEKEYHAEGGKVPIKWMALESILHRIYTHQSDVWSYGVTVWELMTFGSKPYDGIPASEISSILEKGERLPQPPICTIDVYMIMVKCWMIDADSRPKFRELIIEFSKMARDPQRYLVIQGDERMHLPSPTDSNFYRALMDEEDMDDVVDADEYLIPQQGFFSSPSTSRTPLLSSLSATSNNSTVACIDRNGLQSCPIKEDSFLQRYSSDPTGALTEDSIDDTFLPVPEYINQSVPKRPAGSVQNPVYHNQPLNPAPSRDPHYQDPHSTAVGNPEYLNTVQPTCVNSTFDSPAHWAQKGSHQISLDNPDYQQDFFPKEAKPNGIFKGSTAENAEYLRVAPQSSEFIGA

mutEGFR (D770_N771insSVD) kinase assay IC50 [1] | IC50 (Bub1) | IC50 (PC9 cells (EGFRex19del)) | IC50 [3] | SMILES | GI50 (Ba/F3-EGFR-insSVD cells) | GI50 (Ba/F3-EGFR-WT cells) | GI50 [2] | GI50 (Ba/F3-EGFR-L858R cells) | GI50 (Ba/F3-EGFR L861Q cells) | GI50 [4]
0.547 nM | 17200 nM | – | – | CCc1c(Cl)cccc1Nc1c(-c2ccncc2OCC2CN(C)CCO2)[nH]c2c1C(=O)NCC2 (stereo not drawn) [Example 29, 3-(3-chloro-2-ethylanilino)-2-{3-[(4-methylmorpholin-2-yl)methoxy]pyridin-4-yl}-1,5,6,7-tetrahydro-4H-pyrrolo[3,2-c]pyridin-4-one] | 33.6 nM | 621 nM | 0.332 nM | 0.964 nM | 16.2 nM | –
0.1 nM | 6310 nM | 1.94 nM | < 3 nM | COc1c(F)cccc1Nc1c(-c2ccncc2OCC2COCCO2)[nH]c2c1C(=O)NCC2 (single isomer, unassigned) [Example 6, 2-{3-[(1,4-dioxan-2-yl)methoxy]pyridin-4-yl}-3-(3-fluoro-2-methoxyanilino)-1,5,6,7-tetrahydro-4H-pyrrolo[3,2-c]pyridin-4-one] | 50.3 nM | 785 nM | – | – | – | 31.8 nM
0.257 nM | 7590 nM | – | – | CCc1c(Cl)cccc1Nc1c(-c2ccncc2OC[C@H]2CN(C)CCO2)[nH]c2c1C(=O)NCC2 [Example 55, 3-(3-chloro-2-ethylanilino)-2-(3-{[(2R)-4-methylmorpholin-2-yl]methoxy}pyridin-4-yl)-1,5,6,7-tetrahydro-4H-pyrrolo[3,2-c]pyridin-4-one] | 124 nM | 1310 nM | – | – | – | –
